Biological target: T1, c-Abl protein tyrosine kinase (Homo sapiens, UniProt P00519)
T1 construct: c-Abl Kinase Fragment, Amino Acids 218-500; Factor Xa cleavage site (IEGR) (N); made in house; host or cells: baculovirus / Sf9 insect cells
T1 sequence (P00519 with tags, fused parts or gaps): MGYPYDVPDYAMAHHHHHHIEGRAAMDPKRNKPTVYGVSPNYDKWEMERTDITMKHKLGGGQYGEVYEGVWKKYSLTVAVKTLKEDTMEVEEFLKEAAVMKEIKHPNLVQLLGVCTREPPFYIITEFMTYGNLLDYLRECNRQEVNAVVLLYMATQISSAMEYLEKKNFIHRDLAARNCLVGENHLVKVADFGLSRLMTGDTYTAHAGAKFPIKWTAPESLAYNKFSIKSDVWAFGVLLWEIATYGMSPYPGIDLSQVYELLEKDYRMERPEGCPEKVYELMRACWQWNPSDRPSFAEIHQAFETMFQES
Test: c-Abl protein tyrosine kinase filter binding assay ([32P]-ATP, Poly-AEKY substrate)
Type: biochemical
Conditions: hit from HTD; in vitro confirmation test described, IC50 not given
Experimental: The top scoring poses are evaluated interactively using molecular graphics to select those compounds which formed favorable intermolecular hydrogen bonds and van der Waals interactions with the c-Abl kinase receptor model, as well as to eliminate compounds containing cis-amides and non-aromatic tautomers. Compounds are also selected for desirable drug-like properties, such as size, lipophilicity and chemical stability. The resulting “hit” compounds are confirmed as leads for drug optimization, by their in vitro evaluation in a test for activity against c-Abl protein tyrosine kinase. The test is conducted as a filter binding assay as follows: The His-tagged kinase domain of c-Abl is cloned and expressed in the baculovirus/Sf9 system. See Bhat et al., J Biol Chem, Vol. 27, pp. 16170-16175 (1997). […] Membranes are counted after drying at ambient temperature, mounting in Packard TopCount 96-well frame, and addition of 10 μL/well of Microscint™ (Packard). The activity of the compounds is quantified as IC50 and IC90 values, as determined from their dose response curves by graphical extrapolation. Thus, IC50 values are determined by linear regression analysis of the percentages for the inhibition of each compound in at least four concentrations (as a rule 0.01, 0.1, 1.0 and […]).

inhibition of c-Abl kinase (hit identified by virtual screening): specific inhibitors of c-Abl kinase
Structure (SMILES): COc1cccc(-n2cc(-c3cccc(OCCNCCO)c3)c3ncnc(N)c32)c1 [2-[[2-[3-[4-amino-5-(3-methoxyphenyl)-5H-pyrrolo[3,2-d]pyrimidin-7-yl]phenoxy]ethyl]amino]-ethanol]

Reference: patent publication US20060030017A1, “Three-dimensional structure of c-Abl” (priority 2004, published 2006)
